This series deals with Human Adipose-Derived Mesenchymal Stem Cells (AD-MSC). In words: Confirmation of cytotoxicity (CCK-8 activity test and SRB staining). The note with it: about 1 to 200 µg/ml, 7 days of culture; for cytotoxicity: CCK-8; for change in cell morphology: SRB staining, microscope. Format: cell-based. As to the method: Human Adipose-Derived Mesenchymal Stem Cells (AD-MSC) were treated with Peptide-1 or Peptide-2 to determine whether they were cytotoxic.
Specifically, AD-MSCs were seeded in 96-well plates at a concentration of about 1.5 x 10^3 cells/well and cultured in DMEM medium (about 10 % FBS + DMEM medium) for about 24 hours. […] After 7 days of culture, about 1/10 of the culture medium was treated with a CCK-8 (Dojindo, CCK-8 kit) solution and cultured for about 2 hours. After incubation, the culture medium was sampled and the absorbance was measured at a wavelength of about 450 nm using a microplate reader. After measuring the absorbance, the medium in the culture medium in the 96-well plate was removed, and about 60 µl of 3.7 % formalin was added to the 96-well plate to fix the cells for about 1 minute. After cell fixation, the formalin was removed, and about 70 ul of SRB staining solution (about 0.2 g of Sulforhodamine B sodium salt (sigma, S9012) dissolved in about 100 ml of double-distilled water) was added to the fixed cells, and the cells were stained by culturing overnight at room temperature in a lightblocking condition. After cell staining, the cells were washed with about 1 % acetic acid and dried. The dried cells were observed under a microscope. As control groups, an experimental group (CON) that was not treated with the above peptide and an experimental group (CM) treated with a solution containing about 100 nM dexamethasone, about 50 µM ascorbic acid, about 40 µM proline, about 10 ng/ml TGFβ1, and 1X ITS instead of the above peptide were used.

Where no end group is shown, it is not given here.

As for HHEQF [Peptide-2, HHEQF], the cytotoxicity entry is given as “no cytotoxicity was caused” and the “change in cell morphology” value was “no change in cell morphology occurred at all concentrations”.
As for STGALSTSFTEE [Peptide-1, STGALSTSFTEE], the cytotoxicity entry is “no cytotoxicity was caused” and the “change in cell morphology” value is given as “no change in cell morphology occurred at all concentrations”.
